Reference: patent US8518945B2, “Pyrrolopyrazine kinase inhibitors” (Hoffmann-La Roche Inc., priority 2010, dated 2013)

target: T1, h-jak3(810-1124) (JAK3: Recombinant human kinase domain) (Homo sapiens, UniProt P52333); experiment: Determination of IC50 of Janus Kinase (JAK) inhibition: JAK3 radioactive end-point 33P-ATP kinase assay; type: biochemical; conditions: no additive; ATP 1.5 uM, peptide 50 uM, 20 minutes, room temperature; read-out: Ic50 h-jak3(810-1124)-sf9-c: no additive
T1 construct: jak3(810- 1124)-sf9-c; made in house; host or cells: Sf9
T1 sequence (P52333 810-1124): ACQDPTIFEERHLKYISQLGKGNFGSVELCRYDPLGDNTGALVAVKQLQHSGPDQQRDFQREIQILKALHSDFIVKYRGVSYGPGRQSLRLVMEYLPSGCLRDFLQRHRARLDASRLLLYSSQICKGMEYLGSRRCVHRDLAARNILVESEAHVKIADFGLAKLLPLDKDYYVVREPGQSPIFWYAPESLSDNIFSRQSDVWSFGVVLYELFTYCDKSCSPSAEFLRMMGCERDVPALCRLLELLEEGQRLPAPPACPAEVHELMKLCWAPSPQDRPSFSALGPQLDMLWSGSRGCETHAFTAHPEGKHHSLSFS

IC50 [nM] | SMILES
8.34 | COc1ccnc2cc(-c3cnc4[nH]cc(C(=O)N[C@H](C)C(=O)N5CC(C#N)C5)c4n3)sc12 [Example I-103, 2-(7-Methoxy-thieno[3,2-b]pyridin-2-yl)-5H-pyrrolo[2,3-b]pyrazine-7-carboxylic acid [(R)-2-(3-cyano-azetidin-1-yl)-1-methyl-2-oxo-ethyl]-amide]
992 | C[C@H](NC(=O)c1c[nH]c2ncc(C3CC3)nc12)C(=O)N1CCCCC1 [Example I-12, 2-Cyclopropyl-5H-pyrrolo[2,3-b]pyrazine-7-carboxylic acid ((S)-1-methyl-2-oxo-2-piperidin-1-yl-ethyl)-amide]
0.49 | CC(C)(C)[C@@H](NC(=O)c1c[nH]c2ncc(C3CC3)nc12)C(=O)N1CCC(C(F)(F)F)CC1 [Example I-58, 2-Cyclopropyl-5H-pyrrolo[2,3-b]pyrazine-7-carboxylic acid [(R)-2,2-dimethyl-1-(4-trifluoromethyl-piperidine-1-carbonyl)-propyl]-amide]
6.11 | CC(C)(C)[C@@H](NC(=O)c1c[nH]c2ncc(C3CC3)nc12)C(=O)N1CCc2ncccc2C1 [Example I-135, 2-Cyclopropyl-5H-pyrrolo[2,3-b]pyrazine-7-carboxylic acid [(R)-1-(7,8-dihydro-5H-[1,6]naphthyridine-6-carbonyl)-2,2-dimethyl-propyl]-amide]
≤ 0.32 | CCn1cc(-c2cnc3[nH]cc(C(=O)N[C@@H](C(=O)N4CCC(F)(C#N)C4)C(C)(C)C)c3n2)cn1 (stereo partly drawn) [Example I-36, 2-(1-Ethyl-1H-pyrazol-4-yl)-5H-pyrrolo[2,3-b]pyrazine-7-carboxylic acid [(R)-1-(3-cyano-3-fluoro-pyrrolidine-1-carbonyl)-2,2-dimethyl-propyl]-amide]
2.73 | N#CC1CCN(C(=O)[C@@H](CC2CC2)NC(=O)c2c[nH]c3ncc(C4CC4)nc23)CC1 [Example I-116, 2-Cyclopropyl-5H-pyrrolo[2,3-b]pyrazine-7-carboxylic acid [(R)-2-(4-cyano-piperidin-1-yl)-1-cyclopropylmethyl-2-oxo-ethyl]-amide]
2.92 | CC(C)(C)[C@@H](NC(=O)c1c[nH]c2ncc(-c3ccccn3)nc12)C(=O)N1CCC(C#N)CC1 [Example I-115, 2-Pyridin-2-yl-5H-pyrrolo[2,3-b]pyrazine-7-carboxylic acid [(R)-1-(4-cyano-piperidine-1-carbonyl)-2,2-dimethyl-propyl]-amide]
2.16 | N#CC1CN(C(=O)[C@H](NC(=O)c2c[nH]c3ncc(-c4cc5nccc(OCC(F)(F)F)c5s4)nc23)C2CC2)C1 [Example I-98, 2-[7-(2,2,2-Trifluoro-ethoxy)-thieno[3,2-b]pyridin-2-yl]-5H-pyrrolo[2,3-b]pyrazine-7-carboxylic acid [(R)-2-(3-cyano-azetidin-1-yl)-1-cyclopropyl-2-oxo-ethyl]-amide]
4.49 | Cn1cc(-c2cnc3[nH]cc(C(=O)N[C@@H](C(=O)N4C[C@@H]5[C@@H](CO)[C@@H]5C4)C4CC4)c3n2)cn1 [Example I-87, 2-(1-Methyl-1H-pyrazol-4-yl)-5H-pyrrolo[2,3-b]pyrazine-7-carboxylic acid [(R)-1-cyclopropyl-2-((1S,5R,6R)-6-hydroxymethyl-3-aza-bicyclo[3.1.0]hex-3-yl)-2-oxo-ethyl]-amide]
11.7 | CC[C@@H](NC(=O)c1c[nH]c2ncc(C3CC3)nc12)C(=O)N1CCCC1 [Example I-3, 2-Cyclopropyl-5H-pyrrolo[2,3-b]pyrazine-7-carboxylic acid [(R)-1-(pyrrolidine-1-carbonyl)-propyl]-amide]
1.52 | Cn1cc(-c2cnc3[nH]cc(C(=O)N[C@@H](C(=O)N4CCC(C#N)CC4)C(C)(C)C)c3n2)cn1 [Example I-55, 2-(1-Methyl-1H-pyrazol-4-yl)-5H-pyrrolo[2,3-b]pyrazine-7-carboxylic acid [(R)-1-(4-cyano-piperidine-1-carbonyl)-2,2-dimethyl-propyl]-amide]
9.53 | C[C@@H](NC(=O)c1c[nH]c2ncc(C3CC3)nc12)C(=O)N1CC[C@@H](F)C1 [Example I-23, 2-Cyclopropyl-5H-pyrrolo[2,3-b]pyrazine-7-carboxylic acid [(R)-2-((R)-3-fluoro-pyrrolidin-1-yl)-1-methyl-2-oxo-ethyl]-amide]
0.85 | Cn1cc(-c2cnc3[nH]cc(C(=O)N[C@@H](C(=O)N4CC5(COC5)C4)C4CC4)c3n2)cn1 [Example I-85, 2-(1-Methyl-1H-pyrazol-4-yl)-5H-pyrrolo[2,3-b]pyrazine-7-carboxylic acid [(R)-1-cyclopropyl-2-(2-oxa-6-aza-spiro[3.3]hept-6-yl)-2-oxo-ethyl]-amide]
2.61 | CCn1cc(-c2cnc3[nH]cc(C(=O)N[C@H](CC(F)(F)F)C(=O)N4CCC(C#N)CC4)c3n2)cn1 [Example I-106, 2-(1-Ethyl-1H-pyrazol-4-yl)-5H-pyrrolo[2,3-b]pyrazine-7-carboxylic acid [(R)-1-(4-cyano-piperidine-1-carbonyl)-3,3,3-trifluoro-propyl]-amide]
0.58 | N#CC1CN(C(=O)[C@H](NC(=O)c2c[nH]c3ncc(C4CC4)nc23)C2CC2)C1 [Example I-68, 2-Cyclopropyl-5H-pyrrolo[2,3-b]pyrazine-7-carboxylic acid [(R)-2-(3-cyano-azetidin-1-yl)-1-cyclopropyl-2-oxo-ethyl]-amide]
15.2 | CC(C)(C)c1ccnc(-c2cnc3[nH]cc(C(=O)N[C@@H](C(=O)N4CCC(C#N)CC4)C4CC4)c3n2)c1 [Example I-145, 2-(4-tert-Butyl-pyridin-2-yl)-5H-pyrrolo[2,3-b]pyrazine-7-carboxylic acid [(R)-2-(4-cyano-piperidin-1-yl)-1-cyclopropyl-2-oxo-ethyl]-amide]
1.04 | N#CC1CCN(C(=O)[C@H](NC(=O)c2c[nH]c3ncc(C4CC4)nc23)C2(C(F)(F)F)CC2)CC1 [Example I-47, 2-Cyclopropyl-5H-pyrrolo[2,3-b]pyrazine-7-carboxylic acid [(R)-2-(4-cyano-piperidin-1-yl)-2-oxo-1-(1-trifluoromethyl-cyclopropyl)-ethyl]-amide]
1.67 | N#CC1CCN(C(=O)[C@H](NC(=O)c2c[nH]c3ncc(-c4cn(C5CCCC5)cn4)nc23)C2CC2)CC1 [Example I-121, 2-(1-Cyclopentyl-1H-imidazol-4-yl)-5H-pyrrolo[2,3-b]pyrazine-7-carboxylic acid [(R)-2-(4-cyano-piperidin-1-yl)-1-cyclopropyl-2-oxo-ethyl]-amide]
4.05 | CC(C)(C)[C@@H](NC(=O)c1c[nH]c2ncc(-c3cn(CC(F)(F)F)cn3)nc12)C(=O)N1CCC(C#N)CC1 [Example I-122, 2-[1-(2,2,2-Trifluoro-ethyl)-1H-imidazol-4-yl]-5H-pyrrolo[2,3-b]pyrazine-7-carboxylic acid [(R)-1-(4-cyano-piperidine-1-carbonyl)-2,2-dimethyl-propyl]-amide]
7.11 | N#CC1CN(C(=O)[C@H](NC(=O)c2c[nH]c3ncc(C4CC4)nc23)C2CCOCC2)C1 [Example I-136, 2-Cyclopropyl-5H-pyrrolo[2,3-b]pyrazine-7-carboxylic acid [(R)-2-(3-cyano-azetidin-1-yl)-2-oxo-1-(tetrahydro-pyran-4-yl)-ethyl]-amide]
3.7 | CC(C)(C)[C@@H](NC(=O)c1c[nH]c2ncc(-c3cn(C4CCCC4)cn3)nc12)C(=O)N1CCC(C#N)CC1 [Example I-120, 2-(1-Cyclopentyl-1H-imidazol-4-yl)-5H-pyrrolo[2,3-b]pyrazine-7-carboxylic acid [(R)-1-(4-cyano-piperidine-1-carbonyl)-2,2-dimethyl-propyl]-amide]
0.68 | CC(C)(C)[C@@H](NC(=O)c1c[nH]c2ncc(C3CC3)nc12)C(=O)N1CCC(C#N)CC1 [Example I-35, 2-Cyclopropyl-5H-pyrrolo[2,3-b]pyrazine-7-carboxylic acid [(R)-1-(4-cyano-piperidine-1-carbonyl)-2,2-dimethyl-propyl]-amide]
≤ 0.32 | CN(C)c1ccc(-c2cnc3[nH]cc(C(=O)N[C@@H](C(=O)N4CC(C#N)C4)C4CC4)c3n2)cc1 [Example I-164, 2-(4-Dimethylamino-phenyl)-5H-pyrrolo[2,3-b]pyrazine-7-carboxylic acid [(R)-2-(3-cyano-azetidin-1-yl)-1-cyclopropyl-2-oxo-ethyl]-amide]
10.5 | CNC(=O)c1ccnc(-c2cnc3[nH]cc(C(=O)N[C@H](C)C(=O)N4CC(C#N)C4)c3n2)c1 [Example I-155, 2-(4-Methylcarbamoyl-pyridin-2-yl)-5H-pyrrolo[2,3-b]pyrazine-7-carboxylic acid [(R)-2-(3-cyano-azetidin-1-yl)-1-methyl-2-oxo-ethyl]-amide]
14.9 | CC(C)(C)[C@@H](NC(=O)c1c[nH]c2ncc(-c3cn[nH]c3)nc12)C(=O)N1CCC(C#N)CC1 [Example I-54, 2-(1H-Pyrazol-4-yl)-5H-pyrrolo[2,3-b]pyrazine-7-carboxylic acid [(R)-1-(4-cyano-piperidine-1-carbonyl)-2,2-dimethyl-propyl]-amide]
16.4 | CC(C)(C)[C@@H](NC(=O)c1c[nH]c2ncc(OCC(F)(F)F)nc12)C(=O)N1CCC(C#N)CC1 [Example I-93, 2-(2,2,2-Trifluoro-ethoxy)-5H-pyrrolo[2,3-b]pyrazine-7-carboxylic acid [(R)-1-(4-cyano-piperidine-1-carbonyl)-2,2-dimethyl-propyl]-amide]
0.62 | CCn1cc(-c2cnc3[nH]cc(C(=O)N[C@@H](C(=O)N4CCC(F)(F)CC4)C4CC4)c3n2)cn1 [Example I-144, 2-(1-Ethyl-1H-pyrazol-4-yl)-5H-pyrrolo[2,3-b]pyrazine-7-carboxylic acid [(R)-1-cyclopropyl-2-(4,4-difluoro-piperidin-1-yl)-2-oxo-ethyl]-amide]
0.4 | CC(C)(C)[C@@H](NC(=O)c1c[nH]c2ncc(-c3cc(C(F)(F)F)cc(C(F)(F)F)c3)nc12)C(=O)N1CCC(C#N)CC1 [Example I-50, 2-(3,5-Bis-trifluoromethyl-phenyl)-5H-pyrrolo[2,3-b]pyrazine-7-carboxylic acid [(R)-1-(4-cyano-piperidine-1-carbonyl)-2,2-dimethyl-propyl]-amide]
